# Measurements as given in ChEMBL document CHEMBL4033699, “Insights into the myosin II inhibitory potency of A-ring-modified (S)-blebbistatin analogs” (Bioorg Med Chem Lett, 2017).
# Assay: Inhibition of F-actin activated rabbit full length myosin 2 ATPase activity after 1 hr by CytoPhos reagent based assay
# Design: species or system Oryctolagus cuniculus
# Conditions: not given
row,IC50 [µM],SMILES
1,1.02,Cc1ccc2c(c1)C(=O)[C@]1(O)CCN(c3ccccc3)C1=N2
2,7.97,O=C1c2cc3ccccc3cc2N=C2N(c3ccccc3)CC[C@@]12O
3,> 20,O=C1c2cc3cc[nH]c3cc2N=C2N(c3ccccc3)CC[C@@]12O

# More lines, now with the values behind:
row,SMILES,IC50 [µM]
1,C=CCN1CCc2cc3c(cc21)N=C1N(c2ccccc2)CC[C@@]1(O)C3=O,8.46
2,O=C1c2cc3c(cc2N=C2N(c4ccccc4)CC[C@@]12O)NCC3,14.5

# Assay: Solubility of the compound in Tris-HCl at pH 7.5
# Format: physicochemical
# Conditions: Tris-HCl buffer
row,solubility [µM],SMILES
1,< 100,Cc1ccc2c(c1)C(=O)[C@]1(O)CCN(c3ccccc3)C1=N2
2,< 15,O=C1c2cc3ccccc3cc2N=C2N(c3ccccc3)CC[C@@]12O
3,< 40,O=C1c2cc3cc[nH]c3cc2N=C2N(c3ccccc3)CC[C@@]12O

# The remaining lines, values behind:
row,SMILES,solubility [µM]
1,C=CCN1CCc2cc3c(cc21)N=C1N(c2ccccc2)CC[C@@]1(O)C3=O,< 40
2,O=C1c2cc3c(cc2N=C2N(c4ccccc4)CC[C@@]12O)NCC3,< 50
